Earlier results as cited in US20120219597A1, “PHARMACEUTICAL FORMULATIONS FOR INDIBULIN” (ZIOPHARM Oncology, Inc., priority 2009, published 2012).

Tests used:
[1] = pure indibulin
[2] = in water, methanol, ethanol or 2-propanol

SMILES: O=C(Nc1ccncc1)C(=O)c1cn(Cc2ccc(Cl)cc2)c2ccccc12 [indibulin]
- bioavailability [1]: low
- solubility [2]: practically insoluble
